{"source": "paper PMC11985751", "about": "“Synthesis, bioactivity, and molecular docking studies: novel arylpiperazine derivatives as potential new-resistant AR antagonists” (Frontiers in Chemistry, 2025)", "key": {"LNCaP": {"test_system": "LNCaP", "assay": "In vitro cytotoxicity, CCK-8 assay", "assay_type": "cell-based, human", "details": "Homo sapiens, LNCaP, LNCaP cells, CCK-8, mean ± SD of three trials", "procedure": "(§1) PC-3 and WPMY-1 cells were cultured in Dulbecco’s modiffcation Eagle’s medium (DMEM, Invitrogen, Carlsbad, CA, United States) supplemented with 10% fetal bovine serum (FBS, Hyclone, Logan, UT, United States), 100 U/mL penicillin and 0.1 mg/mL streptomycin (Invitrogen). DU145 cells were cultured in RPMI1640 media supplemented with 10% fetal bovine serum (FBS, Hyclone), 100 U/mL penicillin and 0.1 mg/mL streptomycin (Invitrogen). LNCaP cells were cultured in F12 media supplemented with 10% fetal bovine serum (FBS, Hyclone), 100 U/mL penicillin and 0.1 mg/mL streptomycin (Invitrogen). The cells were incubated at 37°C in a humidified atmosphere with 5% CO2([Chen et al., 2025]; [Jiang et al., 2024]).\nThe proliferative capacity of cells was evaluated through the implementation of a Cell Counting Kit-8 (CCK-8) assay, supplied by Dojindo (Japan), to quantify cellular growth. Post-transfection, cells were dispensed into a 96-well microplate at a density of 3 × 10^3 cells per well and incubated for intervals of 0, 24, 48, 72, 96, and 120 h. Following this, 10 μL of the CCK-8 solution was introduced into each well and the plates were returned to the incubator for an additional 2-h period at 37°C under 5% CO2 conditions. Absorbance readings at 450 nm were subsequently taken using an ELISA reader manufactured by Bio Tek (United States) ([Chen et al., 2022]; [Zhou et al., 2024]).\n(§2) The compound concentrations were set at 30, 15, 7.5, 3.75, 1.88, and 0.94 μmol/L. The absorbance (A) was measured at 450 nm using a microplate reader. […] All experiments were repeated three times under identical conditions, and the mean value was taken as the final result.\n(§3) The cytotoxic activity of derivatives 5–24 against three human prostate cancer cell lines (PC-3, LNCaP, and DU145) and one type of human normal prostate epithelial cells was evaluated using the CCK-8 method."}, "DU145": {"test_system": "DU145", "assay": "In vitro cytotoxicity, CCK-8 assay", "assay_type": "cell-based", "details": "Homo sapiens, DU-145; DU145 cells, CCK-8, mean ± SD of three trials", "procedure": "as §1, with “2024]). […]” for “2024]).”\nas §2, §3"}, "PC-3": {"test_system": "PC-3", "assay": "In vitro cytotoxicity, CCK-8 assay", "assay_type": "cell-based, human", "details": "CCK-8, mean ± SD of three trials", "procedure": "as §1, with “2024]). […]” for “2024]).”\nas §2, §3"}, "WPMY-1": {"test_system": "WPMY-1", "assay": "In vitro cytotoxicity, CCK-8 assay (normal prostatic epithelial cells)", "assay_type": "cell-based", "details": "Homo sapiens; WPMY-1 normal prostatic epithelial cells, CCK-8, mean ± SD of three trials", "procedure": "as §1, with “2024]). […]” for “2024]).”\nas §2, §3"}, "AR": {"target": "T1, AR (Homo sapiens, UniProt P10275)", "T1 sequence (P10275 1-920)": "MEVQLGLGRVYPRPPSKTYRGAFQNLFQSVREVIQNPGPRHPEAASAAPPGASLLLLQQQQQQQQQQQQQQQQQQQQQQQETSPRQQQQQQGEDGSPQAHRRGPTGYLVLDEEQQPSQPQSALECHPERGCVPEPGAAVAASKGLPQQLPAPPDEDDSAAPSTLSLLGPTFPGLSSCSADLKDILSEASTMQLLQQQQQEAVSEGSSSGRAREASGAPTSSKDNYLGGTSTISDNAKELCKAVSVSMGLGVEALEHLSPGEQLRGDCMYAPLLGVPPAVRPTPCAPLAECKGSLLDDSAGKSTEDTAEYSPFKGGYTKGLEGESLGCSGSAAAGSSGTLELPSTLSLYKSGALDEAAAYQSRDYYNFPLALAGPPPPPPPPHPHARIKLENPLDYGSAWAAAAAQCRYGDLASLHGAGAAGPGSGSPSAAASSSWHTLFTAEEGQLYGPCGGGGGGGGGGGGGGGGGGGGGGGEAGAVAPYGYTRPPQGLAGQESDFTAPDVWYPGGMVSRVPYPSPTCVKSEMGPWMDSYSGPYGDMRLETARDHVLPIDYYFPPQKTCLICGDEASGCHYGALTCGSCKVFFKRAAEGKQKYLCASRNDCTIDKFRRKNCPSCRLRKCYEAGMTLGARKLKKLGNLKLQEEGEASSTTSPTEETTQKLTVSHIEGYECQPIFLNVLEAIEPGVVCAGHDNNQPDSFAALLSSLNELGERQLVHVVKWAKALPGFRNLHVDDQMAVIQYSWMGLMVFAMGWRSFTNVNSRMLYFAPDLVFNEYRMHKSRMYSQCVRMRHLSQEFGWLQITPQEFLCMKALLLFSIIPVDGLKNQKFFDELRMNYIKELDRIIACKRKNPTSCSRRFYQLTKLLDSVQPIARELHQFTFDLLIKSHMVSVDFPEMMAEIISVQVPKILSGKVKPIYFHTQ", "assay": "AR reporter gene (luciferase) assay, co-treatment with 1 nM R1881", "assay_type": "cell-based", "details": "10 μM compound, inhibition rate as ratio to R1881 control, read-out: AR antagonistic activity% (10 μM)", "procedure": "RLUs were measured using a luminometer (GloMaxTM 96-Microplate Luminometer, Promega) and are reported as the mean ± SEM of three individual experiments. For agonists, fold of induction = LUinduced/RLUuninduced. For antagonists, % of control = 100 × RLU (agonist + antagonist)/RLU (agonist alone). All RLUs were normalized against ffreffy RLUs/Renilla RLUs. Data are expressed as EC50/IC50 values in μM, and the IC50 of […] (μM) was calculated by plotting the data using nonlinear regression analysis in Graph-Pad Prism 5 software."}, "AR-LBD (GST)": {"target": "T2, AR-LBD (GST) (Rattus norvegicus, UniProt P15207)", "T2 sequence (P15207 651-882 limits assumed)": "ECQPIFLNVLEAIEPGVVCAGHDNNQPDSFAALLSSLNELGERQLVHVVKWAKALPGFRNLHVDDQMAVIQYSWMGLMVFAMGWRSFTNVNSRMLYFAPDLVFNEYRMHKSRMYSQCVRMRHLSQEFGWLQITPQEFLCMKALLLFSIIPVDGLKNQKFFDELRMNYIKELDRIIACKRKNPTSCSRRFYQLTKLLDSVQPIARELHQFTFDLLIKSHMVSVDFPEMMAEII", "assay": "Fluorescence polarization, PolarScreen AR Competitor Assay, Green", "protocol": "Brieffy, the assay entails titration of the test compound against a preformed complex of Fluormone™AL Green and the AR-LBD (GST). […] Data analysis for the ligand binding assays was performed using Prism software (GraphPad Software, Inc.)."}}, "data": [{"smiles": "Clc1ccc(OCCc2ccc(CN3CCN(C(c4ccccc4)c4ccccc4)CC3)cc2)cc1", "note": "[Compound 21, 1-benzhydryl-4-(4-(2-(4-chlorophenoxy)ethyl)benzyl)piperazine]", "values": [{"measurement": "IC50", "setting": "LNCaP", "result": "16.09 ± 0.12", "unit": "µM"}, {"measurement": "IC50", "setting": "DU145", "result": "13.7 ± 0.14", "unit": "µM"}, {"measurement": "IC50", "setting": "PC-3; Homo sapiens, PC-3, PC-3 cells", "result": "< 5", "unit": "µM"}, {"measurement": "IC50", "setting": "PC-3; PC-3 cells", "result": "2.83 ± 0.21", "unit": "µM"}, {"measurement": "IC50", "setting": "WPMY-1", "result": "28.65 ± 0.13", "unit": "µM"}, {"measurement": "activity at 10 µM", "setting": "AR", "result": "49.4 ± 0.8", "unit": "%"}, {"measurement": "IC50", "setting": "AR-LBD (GST)", "result": "2.74 ± 0.16", "unit": "µM"}]}, {"smiles": "c1ccc(C(c2ccccc2)N2CCN(Cc3ccc(CCOc4cccc5ccccc45)cc3)CC2)cc1", "note": "[Compound 22, 1-benzhydryl-4-(4-(2-(naphthalen-1-yloxy)ethyl)benzyl)piperazine]", "values": [{"measurement": "IC50", "setting": "LNCaP", "result": "6.78 ± 0.14", "unit": "µM"}, {"measurement": "IC50", "setting": "DU145", "result": "15.76 ± 0.09", "unit": "µM"}, {"measurement": "IC50", "setting": "PC-3; Homo sapiens, PC-3, PC-3 cells", "result": "10.1 ± 0.17", "unit": "µM"}, {"measurement": "IC50", "setting": "WPMY-1", "result": "33.16 ± 0.15", "unit": "µM"}, {"measurement": "activity at 10 µM", "setting": "AR", "result": "40.3 ± 1.2", "unit": "%"}, {"measurement": "IC50", "setting": "AR-LBD (GST)", "result": "3.02 ± 0.24", "unit": "µM"}]}, {"smiles": "FC(F)(F)c1ccc(OCCc2ccc(CN3CCN(C(c4ccccc4)c4ccccc4)CC3)cc2)cc1", "note": "[Compound 24, 1-benzhydryl-4-(4-(2-(4-(trifluoromethyl)phenoxy)ethyl)benzyl)piperazine]", "values": [{"measurement": "IC50", "setting": "LNCaP", "result": "14.6 ± 0.18", "unit": "µM"}, {"measurement": "IC50", "setting": "DU145", "result": "5.76 ± 0.14", "unit": "µM"}, {"measurement": "IC50", "setting": "PC-3; Homo sapiens, PC-3, PC-3 cells", "result": "< 5", "unit": "µM"}, {"measurement": "IC50", "setting": "PC-3; PC-3 cells", "result": "3.94 ± 0.14", "unit": "µM"}, {"measurement": "IC50", "setting": "WPMY-1", "result": "> 50", "unit": "µM"}, {"measurement": "activity at 10 µM", "setting": "AR", "result": "47.3 ± 0.6", "unit": "%"}, {"measurement": "IC50", "setting": "AR-LBD (GST)", "result": "2.87 ± 0.22", "unit": "µM"}]}]}
